Our source for the No. of cells values is ChEMBL document CHEMBL1134027, “An improved method for the rapid preparation of 2-amino-4,4a-dihydro-4a,7-dimethyl-3H-phenoxazine-3-one, a novel antitumor agent” (2001).

Holding throughout (format): functional
A short description of test [1]: Inhibition of incorporation of [3H]thymidine into DNA of human lymphoid leukemia HAL-01 cell at 0 uM after 8 hr.
Test [2] has as its system HL-60. In words: Inhibition of incorporation of [3H]thymidine into DNA of human myeloid leukemia HL-60 cell at 0 uM after 8 hr.
The nature of test [3]: Inhibition of incorporation of [3H]thymidine into DNA of human lymphoid leukemia HAL-01 cell at 100 uM after 2 hr.
A short description of test [4]: Inhibition of incorporation of [3H]thymidine into DNA of human lymphoid leukemia HAL-01 cell at 100 uM after 8 hr.
In test [5] the test system is HL-60. In words: Inhibition of incorporation of [3H]thymidine into DNA of human myeloid leukemia HL-60 cell at 200 uM after 8 hr.
Test [6] deals with HL-60. Put plainly: Inhibition of incorporation of [3H]thymidine into DNA of human myeloid leukemia HL-60 cell at 200 uM after 1 hr.
Test [7] relates to HL-60. Put plainly: Inhibition of incorporation of [3H]thymidine into DNA of human myeloid leukemia HL-60 cell at 0 uM after 2 hr.
Test [8] can be described thus: Inhibition of incorporation of [3H]thymidine into DNA of human lymphoid leukemia HAL-01 cell at 200 uM after 2 hr.
A short description of test [9]: Inhibition of incorporation of [3H]thymidine into DNA of human lymphoid leukemia HAL-01 cell at 0 uM after 1 hr.
Test [10] is described as follows: Inhibition of incorporation of [3H]thymidine into DNA of human lymphoid leukemia HAL-01 cell at 100 uM after 4 hr.
Test [11] in a line: Inhibition of incorporation of [3H]thymidine into DNA of human lymphoid leukemia HAL-01 cell at 0 uM after 2 hr.
In test [12] the test system is HL-60. Put plainly: Inhibition of incorporation of [3H]-thymidine into DNA of human myeloid leukemia HL-60 cell at 100 uM after 4 hr.
For test [13], the system named is HL-60. In words: Inhibition of incorporation of [3H]thymidine into DNA of human myeloid leukemia HL-60 cell at 100 uM after 8 hr.
A short description of test [14]: Inhibition of incorporation of [3H]thymidine into DNA of human lymphoid leukemia HAL-01 cell at 0 uM after 4 hr.
For test [15], the system named is HL-60. Put plainly: Inhibition of incorporation of [3H]thymidine into DNA of human myeloid leukemia HL-60 cell at 100 uM after 2 hr.
Test [16] concerns HL-60. In words: Inhibition of incorporation of [3H]-thymidine into DNA of human myeloid leukemia HL-60 cell at 0 uM after 4 hr.
Test [17] has as its system HL-60. In words: Inhibition of incorporation of [3H]thymidine into DNA of human myeloid leukemia HL-60 cell at 200 uM after 4 hr.
In test [18] the test system is HL-60. In words: Inhibition of incorporation of [3H]thymidine into DNA of human myeloid leukemia HL-60 cell at 0 uM after 1 hr.
For test [19], the system named is HL-60. In words: Inhibition of incorporation of [3H]thymidine into DNA of human myeloid leukemia HL-60 cell at 200 uM after 2 hr.
The nature of test [20]: Inhibition of incorporation of [3H]thymidine into DNA of human lymphoid leukemia HAL-01 cell at 200 uM after 1 hr.
In test [21] the test system is HL-60. Put plainly: Inhibition of incorporation of [3H]thymidine into DNA of human myeloid leukemia HL-60 cell at 100 uM after 1 hr.
Test [22] can be described thus: Inhibition of incorporation of [3H]thymidine into DNA of human lymphoid leukemia HAL-01 cell at 100 uM after 1 hr.
The nature of test [23]: Inhibition of incorporation of [3H]thymidine into DNA of human lymphoid leukemia HAL-01 cell at 200 uM after 4 hr.
The nature of test [24]: Inhibition of incorporation of [3H]thymidine into DNA of human lymphoid leukemia HAL-01 cell at 200 uM after 8 hr.

Consider `Cc1ccc2c(c1)OC1(C)CC(=O)C(N)=CC1=N2` (centres undefined), for which the No. of cells was determined as 40000 in [1]; 35000 in [2]; 17000 in test [3]; 19000 in test [4]; 12000 in test [5]; 0 in test [6]. In addition, the No. of cells in test [7] came to 21000; in test [8], 9000; in test [9], 0; in test [10], 18000; in [11], 25000; in [12], 15000. The No. of cells in [13] is on record as 19000; in test [14], 34000; in test [15] it was 14000; in test [16], 25000; in [17], 9000; in [18] it was 0. For the same compound, the No. of cells in [19] was 6000; in [20], 0; in test [21], 0; in test [22], 0; in test [23], 10000; in test [24], 14000.
